Earlier results on two molecules are cited in patent US6103487A, “Method of treating cancer” (Merck & Co., Inc., priority 1998, dated 2000).

Series [1] deals with farnesyl-protein transferase. Conditions: by inhibiting HMG-CoA reductase.
In the next series the test system is Ras. Conditions: inhibits the rate-limiting step in the isoprenoid biosynthetic pathway; positive control.

Take `CC[C@H](C)C(=O)O[C@H]1CCC=C2C=C[C@H](C)[C@H](CC[C@@H]3C[C@@H](O)CC(=O)O3)[C@H]21` [compactin]: in series [1], the “Indirect inhibition of farnesyl-protein transferase in vivo” value is listed as “Indirect inhibition of farnesyl-protein transferase in vivo has been demonstrated”.
For `CC[C@H](C)C(=O)O[C@H]1C[C@@H](C)C=C2C=C[C@H](C)[C@H](CC[C@@H]3C[C@@H](O)CC(=O)O3)[C@H]21` [lovastatin], the “Indirect inhibition of farnesyl-protein transferase in vivo” value in series [1] is “Indirect inhibition of farnesyl-protein transferase in vivo has been demonstrated”. In the series on Ras, the “block of Ras processing in cells” value is reported as “blocks Ras processing in cells”.
